Results as given in ChEMBL document CHEMBL2434921, “New synthetic aliphatic sulfonamido-quaternary ammonium salts as anticancer chemotherapeutic agents” (2013).
The source made the active and inactive calls. The calls are words filed in the database; no cut-off is given here.

Key:
[1] = system: ACHN; test: Growth inhibition of human ACHN cells after 48 hrs by SRB assay; format: functional
[2] = system: ACHN; test: Growth inhibition of human ACHN cells at 3 uM after 48 hrs by SRB assay; values are per cent of control
[3] = system: MDA-MB-231; test: Growth inhibition of human MDA-MB-231 cells at 0.3 uM after 48 hrs by SRB assay; values are per cent of control; settings: MDA-MB-231, 48 h
[4] = system: NCI-H23; test: Growth of human NCI-H23 cells at 0.3 uM after 48 hrs by SRB assay; settings: NCI-H23, 48 h
[5] = system: ACHN; test: Growth of human ACHN cells at 0.1 uM after 48 hrs by SRB assay
[6] = system: PC-3; test: Growth of human PC3 cells at 10 uM after 48 hrs by SRB assay; settings: PC-3, 48 h
[7] = system: PC-3; test: Growth inhibition of human PC3 cells at 0.1 uM after 48 hrs by SRB assay; values are per cent of control; settings: PC-3, 48 h
[8] = system: NCI-H23; test: Growth inhibition of human NCI-H23 cells at 0.1 uM after 48 hrs by SRB assay; values are per cent of control; settings: NCI-H23, 48 h
[9] = system: PC-3; test: Growth inhibition of human PC3 cells at 0.3 uM after 48 hrs by SRB assay; values are per cent of control; settings: PC-3, 48 h
[10] = system: ACHN; test: Growth inhibition of human ACHN cells at 1 uM after 48 hrs by SRB assay; values are per cent of control
[11] = system: MDA-MB-231; test: Growth of human MDA-MB-231 cells at 10 uM after 48 hrs by SRB assay; settings: MDA-MB-231, 48 h
[12] = system: MDA-MB-231; test: Growth inhibition of human MDA-MB-231 cells after 48 hrs by SRB assay; format: functional; settings: MDA-MB-231, 48 h
[13] = target: Rho-related GTP-binding protein RhoB (Homo sapiens) (UniProt P62745); test: Transactivation of RhoB (unknown origin) transfected in human HeLa cells at 5 uM measured over 10 secs by dual luciferase reporter gene assay; format: cell-based
[14] = system: HCT-15; test: Growth of human HCT15 cells at 3 uM after 48 hrs by SRB assay; settings: HCT-15, 48 h
[15] = system: ACHN; test: Growth of human ACHN cells at 0.3 uM after 48 hrs by SRB assay
[16] = system: NUGC-3; test: Growth of human NUGC3 cells at 0.3 uM after 48 hrs by SRB assay; settings: NUGC-3, 48 h
[17] = system: NUGC-3; test: Growth inhibition of human NUGC3 cells after 48 hrs by SRB assay; format: functional; settings: NUGC-3, 48 h
[18] = system: MDA-MB-231; test: Growth of human MDA-MB-231 cells at 3 uM after 48 hrs by SRB assay; values are per cent of control; settings: MDA-MB-231, 48 h
[19] = system: PC-3; test: Growth inhibition of human PC3 cells at 1 uM after 48 hrs by SRB assay; values are per cent of control; settings: PC-3, 48 h
[20] = system: PC-3; test: Growth inhibition of human PC3 cells at 3 uM after 48 hrs by SRB assay; values are per cent of control; settings: PC-3, 48 h
[21] = system: NCI-H23; test: Growth of human NCI-H23 cells at 10 uM after 48 hrs by SRB assay; settings: NCI-H23, 48 h
[22] = system: MDA-MB-231; test: Growth of human MDA-MB-231 cells at 0.1 uM after 48 hrs by SRB assay; settings: MDA-MB-231, 48 h
[23] = system: NUGC-3; test: Growth of human NUGC3 cells at 1 uM after 48 hrs by SRB assay; settings: NUGC-3, 48 h
[24] = system: NCI-H23; test: Growth inhibition of human NCI-H23 cells at 1 uM after 48 hrs by SRB assay; values are per cent of control; settings: NCI-H23, 48 h
[25] = system: HCT-15; test: Growth inhibition of human HCT15 cells at 1 uM after 48 hrs by SRB assay; values are per cent of control; settings: HCT-15, 48 h
[26] = system: PC-3; test: Growth inhibition of human PC3 cells after 48 hrs by SRB assay; format: functional; settings: PC-3, 48 h
[27] = system: NUGC-3; test: Growth inhibition of human NUGC3 cells at 10 uM after 48 hrs by SRB assay; values are per cent of control; settings: NUGC-3, 48 h
[28] = system: NUGC-3; test: Growth inhibition of human NUGC3 cells at 3 uM after 48 hrs by SRB assay; values are per cent of control; settings: NUGC-3, 48 h
[29] = system: HCT-15; test: Growth inhibition of human HCT15 cells at 10 uM after 48 hrs by SRB assay; values are per cent of control; settings: HCT-15, 48 h
[30] = system: ACHN; test: Growth of human ACHN cells at 10 uM after 48 hrs by SRB assay
[31] = system: HCT-15; test: Growth inhibition of human HCT15 cells after 48 hrs by SRB assay; format: functional; settings: HCT-15, 48 h
[32] = system: NUGC-3; test: Growth of human NUGC3 cells at 0.1 uM after 48 hrs by SRB assay; settings: NUGC-3, 48 h
[33] = system: HCT-15; test: Growth of human HCT15 cells at 0.3 uM after 48 hrs by SRB assay; settings: HCT-15, 48 h
[34] = system: HCT-15; test: Growth inhibition of human HCT15 cells at 0.1 uM after 48 hrs by SRB assay; values are per cent of control; settings: HCT-15, 48 h
[35] = system: NCI-H23; test: Growth inhibition of human NCI-H23 cells after 48 hrs by SRB assay; format: functional; settings: NCI-H23, 48 h
[36] = system: MDA-MB-231; test: Growth of human MDA-MB-231 cells at 1 uM after 48 hrs by SRB assay; settings: MDA-MB-231, 48 h
[37] = system: NCI-H23; test: Growth inhibition of human NCI-H23 cells at 3 uM after 48 hrs by SRB assay; values are per cent of control; settings: NCI-H23, 48 h

Sequence of Rho-related GTP-binding protein RhoB (Homo sapiens) (P62745 whole entry): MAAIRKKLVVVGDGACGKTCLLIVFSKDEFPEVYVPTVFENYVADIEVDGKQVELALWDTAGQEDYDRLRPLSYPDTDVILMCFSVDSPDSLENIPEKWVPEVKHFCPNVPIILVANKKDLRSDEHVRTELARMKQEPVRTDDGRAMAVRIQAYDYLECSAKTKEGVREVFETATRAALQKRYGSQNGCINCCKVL

| SMILES | GI50 [1] [nM] | growth, % of control at 3 µM [2] [%] | growth, % of control at 0.3 µM [3] [%] | growth, % of control at 0.3 µM [4] [%] | growth, % of control at 0.1 µM [5] [%] | growth, % of control at 10 µM [6] [%] | growth, % of control at 0.1 µM [7] [%] | growth, % of control at 0.1 µM [8] [%] | growth, % of control at 0.3 µM [9] [%] | growth, % of control at 1 µM [10] [%] | growth, % of control at 10 µM [11] [%] | GI50 [12] [nM] | Activity [13] | growth, % of control at 3 µM [14] [%] | growth, % of control at 0.3 µM [15] [%] | growth, % of control at 0.3 µM [16] [%] | GI50 [17] [nM] | growth, % of control at 3 µM [18] [%] | growth, % of control at 1 µM [19] [%] | growth, % of control at 3 µM [20] [%] | other results |
| --- | --- | --- | --- | --- | --- | --- | --- | --- | --- | --- | --- | --- | --- | --- | --- | --- | --- | --- | --- | --- | --- |
| CCCCCCCCCCCCCCS(=O)(=O)NCCC[N+](C)(C)CC | 1640 | 42.5 | 86.4 | 88.7 | 91.4 | -11.5 | 89.8 | 93.3 | 72.7 | 92.5 | 23.9 | 1170 | Active | 36.9 | 91.4 | 69 | 290 | 43.8 | 33.4 | 6.9 | growth, % of control at 10 µM [21]: -45.5%; growth, % of control at 0.1 µM [22]: 83.1%; growth, % of control at 1 µM [23]: 34%; growth, % of control at 1 µM [24]: 24%; growth, % of control at 1 µM [25]: 68.2%; GI50 [26]: 300 nM; growth, % of control at 10 µM [27]: -4.7%; growth, % of control at 3 µM [28]: 11.2%; growth, % of control at 10 µM [29]: 23.4%; growth, % of control at 10 µM [30]: 24.5%; GI50 [31]: 1140 nM; growth, % of control at 0.1 µM [32]: 85.1%; growth, % of control at 0.3 µM [33]: 94.5%; growth, % of control at 0.1 µM [34]: 97%; GI50 [35]: 330 nM; growth, % of control at 1 µM [36]: 66.2%; growth, % of control at 3 µM [37]: -10.6% |
| C=CC[N+](CC)(CC)CCN(C)S(=O)(=O)CCCCCCCCCCCCCC | 1350 | 46.6 | 87.4 | 76.5 | 92.8 | 4.6 | 91.5 | 82.2 | 89.8 | 73.4 | 14.5 | 710 | Active | 62.9 | 90.5 | 70.5 | 210 | 32.2 | 46.2 | 22.7 | growth, % of control at 10 µM [21]: -5.7%; growth, % of control at 0.1 µM [22]: 89.6%; growth, % of control at 1 µM [23]: 14.3%; growth, % of control at 1 µM [24]: 31.1%; growth, % of control at 1 µM [25]: 85.1%; GI50 [26]: 530 nM; growth, % of control at 10 µM [27]: -6.4%; growth, % of control at 3 µM [28]: -2.9%; growth, % of control at 10 µM [29]: 19.2%; growth, % of control at 10 µM [30]: 20.3%; GI50 [31]: 2030 nM; growth, % of control at 0.1 µM [32]: 79.1%; growth, % of control at 0.3 µM [33]: 93.9%; growth, % of control at 0.1 µM [34]: 91.8%; GI50 [35]: 300 nM; growth, % of control at 1 µM [36]: 54.3%; growth, % of control at 3 µM [37]: 10% |
| CCCCCCCCCCCCCCCCS(=O)(=O)N(C)CC[N+](C)(CC)CC | 1290 | 48.7 | 96.2 | 90.5 | 90.4 | -21.6 | 100 | 90.7 | 92.8 | 72.7 | 15.6 | 1120 | Active | 42.7 | 89.5 | 88.1 | 390 | 35.7 | 50.7 | 8.6 | growth, % of control at 10 µM [21]: 0.4%; growth, % of control at 0.1 µM [22]: 98.5%; growth, % of control at 1 µM [23]: 30.2%; growth, % of control at 1 µM [24]: 51.3%; growth, % of control at 1 µM [25]: 76.2%; GI50 [26]: 560 nM; growth, % of control at 10 µM [27]: 1.2%; growth, % of control at 3 µM [28]: 9.2%; growth, % of control at 10 µM [29]: 21.1%; growth, % of control at 10 µM [30]: 5%; GI50 [31]: 1490 nM; growth, % of control at 0.1 µM [32]: 93.6%; growth, % of control at 0.3 µM [33]: 100%; growth, % of control at 0.1 µM [34]: 98.5%; GI50 [35]: 620 nM; growth, % of control at 1 µM [36]: 68.4%; growth, % of control at 3 µM [37]: 22.5% |
| CCCCCCCCCCCCCCS(=O)(=O)N(C)CC[N+](C)(CC)CC | 1740 | 51.7 | 101 | 91 | 100 | -1.7 | 114 | 96.5 | 108 | 87.4 | 16.5 | 1220 | Active | 60.5 | 102 | 104 | 520 | 34.3 | 79.9 | 10.5 | growth, % of control at 10 µM [21]: -0.5%; growth, % of control at 0.1 µM [22]: 103%; growth, % of control at 1 µM [23]: 45.7%; growth, % of control at 1 µM [24]: 65.4%; growth, % of control at 1 µM [25]: 88.4%; GI50 [26]: 820 nM; growth, % of control at 10 µM [27]: 3.1%; growth, % of control at 3 µM [28]: 10.6%; growth, % of control at 10 µM [29]: 27%; growth, % of control at 10 µM [30]: 16.4%; GI50 [31]: 2350 nM; growth, % of control at 0.1 µM [32]: 98.7%; growth, % of control at 0.3 µM [33]: 96.3%; growth, % of control at 0.1 µM [34]: 95%; GI50 [35]: 710 nM; growth, % of control at 1 µM [36]: 81.5%; growth, % of control at 3 µM [37]: 16.4% |
| CCCCCCCCCCCCCCS(=O)(=O)N(C)CCC[N+](C)(C)CC | 540 | 31.4 | 91.4 | 79.8 | 87.9 | -31.6 | 84.9 | 96.4 | 68.3 | 41.7 | 7.1 | 750 | Active | 42.2 | 78.5 | 46.3 | 130 | 32.1 | 14.6 | -17 | growth, % of control at 10 µM [21]: -16.9%; growth, % of control at 0.1 µM [22]: 95.9%; growth, % of control at 1 µM [23]: 7.9%; growth, % of control at 1 µM [24]: 38.4%; growth, % of control at 1 µM [25]: 68.9%; GI50 [26]: 220 nM; growth, % of control at 10 µM [27]: -18.3%; growth, % of control at 3 µM [28]: -12.5%; growth, % of control at 10 µM [29]: 23%; growth, % of control at 10 µM [30]: 16.9%; GI50 [31]: 1270 nM; growth, % of control at 0.1 µM [32]: 75.5%; growth, % of control at 0.3 µM [33]: 87.8%; growth, % of control at 0.1 µM [34]: 106%; GI50 [35]: 380 nM; growth, % of control at 1 µM [36]: 55.2%; growth, % of control at 3 µM [37]: 3% |
